Entries after “also recorded” stand apart in the source; their conditions may differ.
Experiments:
[1] = system: patients with suspicion of vestibular neuritis; experiment: Clinical study of vestibular deficit following acute vestibular neuritis (VNG, hospitalization, first walk); type: in vivo, human; conditions: 5 days treatment, ondansetron 8 mg/d vs metoclopramide 30 mg/d, n=10 each; for vestibular deficit, VNG at 1 month / vestibular deficit, early VNG (caloric tests): with methylprednisolone and valacyclovir; for vestibular deficit, VNG at 1 month: p=0.07; for vestibular deficit, early VNG (caloric tests): VNG 24 to 48 hours after beginning of deficit; for vestibular deficit, early VNG (caloric tests) / hospitalization duration: p=0.03; for time of first walk: p=0.001
Experimental: Methods: A clinical study conducted by the inventors at the Centre Hospitalier Universitaire (CHU) of Montpellier was carried out. Random clinical tests were performed on 20 patients. Patients were selected on the suspicion of vestibular neuritis started for less than 24 h before the hospitalization. The patients were all administered with methylprednisolone and valacyclovir, and either a 5 days treatment with Metoclopramide (30 mg/d, n=10) or with Ondansetron (8 mg/d, n=10). The functional evaluation was based on a early VNG (vestibulonystagmography) test (realized 24 to 48 hours after the beginning of the vestibular deficit) and a VNG at 1 month. The hospitalization duration and the date of the first walk were also recorded.

[2] = Stability of solution comprising ondansetron base; type: physicochemical; conditions: 1 month storage
Experimental: Chemical stability of the solution was also assessed: […]

[3] = system: hair cells and synaptic terminals of vestibular sensory epithelia (utricles); experiment: Histological and morphometric evaluation of kainate-induced vestibular lesions; type: in vivo, rat; conditions: 4 mg/kg ip 1 h after KA
Experimental: 1 h after KA injection, vestibular behavior of the animals was tested followed by ondansetron injection in the treatment group. […] Subsequently, the animals were tested at 2 h, 6 h, 24 h and 48 h after KA injection. Histological and morphometric analysis were performed at 2 and 24 hours after KA injection in the presence and absence of ondansetron treatment.
Preparation of semi-thin sections of sensory epithelia. We anesthetized female adult rats (Wistar; 200-220 g; n=3 for each treatment) with pentobarbital (0.4%). Animals were perfused transcardially with heparin PBS (0.01M) followed by a fixative solution (2% paraformaldehyde, 2.5% glutaraldehyde 1% picric acid, 5% sucrose) and samples post-fixed. […] Whole vestibular organs were postfixed in 2% OsO4, dehydrated, embedded in Araldite, and 1 μm thick sections were cut. A Nanozoomer Slide Scanner (RIO imaging, Montpellier, France) allowed the observation and scanning of samples mounted on slides.
Scans of semi-thin sections acquired with the Nanozoomer Slide Scanner were analyzed. Quantification of hair cells in utricles was done with Metamorph software (Universal Imaging). For each lesioned and contralateral ear, 3 sections distant of 20 to 25 μm each were analyzed. Thus, 400 cells for each epithelium were counted for each treatment on 3 different animals with the contralateral ear as pooled control. […] ANOVA was used to search for statistical difference, followed by Tukey Test to compare between treatments.

[4] = system: IDPN-induced bilateral vestibular deficit; experiment: Behavioral evaluation of bilateral (nitrile, IDPN)-induced vestibular deficit; type: in vivo, rat
Text: Vestibular rating score was estimated as previously described (Brugeaud et al., 2007; Boadas-Vaello et al. 2005). Animals were scored from range 0 to 4, respectively corresponding to normal behavior to maximal vestibular deficit. Rating 1 means that the behavior is not normal but no specific vestibular deficit is effectively determined; rating 2 corresponds to an identified but slight vestibular deficit and, rating 3 describes an identified and evident deficit. Six different tests were sequentially scored and totalized to rate the vestibular deficit: 1—the head bobbing, when abnormal intermittent backward extension of the neck was observed; 2—the circling stereotyped movement ranging from none to compulsive circles around the animal hips; 3—the retro-pulsion, a typical backward walk reflecting vestibular disturbance; 4—the tail-hanging reflex, that normally induces a normal forelimb extension to reach the ground, results in the ventral bent of the body and grip of the tail when the vestibular deficit is maximal; 5—the contact-inhibition reflex normally leads animal hold to a metal grid in a subpine position to return when their back touch the ground; in case of vestibular deficit with a lack in the body orientation referential, this reflex is abolished, the animal stays griped to the grid in a supine position; 6—the air-righting reflex is necessary for animals to land on their feet when they fall from a supine position; vestibular dysfunction impairs this normal reversal, a maximal deficit leads the animal to land on its back when dropped from a height of 40 cm onto a foam cushion. Vestibular rating scores were expressed for each time point as a percentage of the t0 score.
Validation of the restorative effect of said serotonin 5-HT3 antagonist is also assessed on animal model of bilateral vestibular deficit by analysing the time course of arrival and removal of both excitotoxic lesions and ensuing vestibular deficit following intoxication with nitriles (IP injection—Seoane et al., J. Comp. Neurol. 2001, 439:385-399). […] Protection is assessed by administration of said serotonin 5-HT3 antagonist following different schedules (at the start of chronic intoxication; 24 and 48 h after).
IDPN (1 g/kg; ip) induces bilateral and permanent vestibular damage through destruction of the vestibular sensory epithelium. […] We assessed the effect of IDPN injection using behavioral testing of vestibular deficits. We evaluated the protective effect of single or double injections of ondansetron throughout the time course of injury progression following IDPN injection to determine the vestibuloprotective potential of ondansetron. […]

[5] = system: kainate-induced unilateral vestibular deficit; experiment: Behavioral evaluation of excitotoxically (kainate)-induced unilateral vestibular deficit; type: in vivo, rat; conditions: 4 mg/kg ip 1 h after transtympanic KA injection; 24 h after KA; vs untreated; p=0.022 Mann Whitney
Experimental: Validation of the restorative effect of said serotonin 5-HT3 antagonist is assessed by analysing the time course of arrival and removal of both excitotoxic lesions and ensuing vestibular deficit that occur within vestibular endorgans during intra auricular application of glutamate agonists. In the vestibular endorgans, massive application of kainic acid induces excitotoxic impairments of the neuronal network in the sensory organs (swelling of terminals that contact hair cells-Brugeaud et al., 2007). Histological studies of the expansion and reduction of excitotoxic lesions are undertaken using light and electron microscopy. Behavioural evaluation of vestibular deficit is undertaken using specific behavioural tests of the vestibular function. Under the paradigm developed in the rat, transtympanic application of kainic acid allows its diffusion into the inner ear. […] We evaluate the effect of KA injection using behavioral testing of vestibular deficits and histological quantification of the induced lesion. […] Animals were scored from range 0 to 4, respectively corresponding to normal behavior to maximal vestibular deficit. Rating 1 means that the behavior is not normal but no specific vestibular deficit is effectively determined; rating 2 corresponds to an identified but slight vestibular deficit and, rating 3 describes an identified and evident deficit. […]

SMILES	vestibular deficit, VNG at 1 month [1]	vestibular deficit, VNG at 1 month ([1]; listed as M)	vestibular deficit, early VNG (caloric tests) [1]	vestibular deficit, early VNG (caloric tests) ([1]; listed as metoclopramid)	time of first walk [1]	hospitalization duration [1]	chemical degradation with pH modification [2]	number of not-determined hair cells ([3]; 24 hrs after the KA lesion, P<0.01)	number of type I hair cells ([3]; 24 hrs after the KA lesion, p<0.01)	maturation of neo-formed synaptic terminals (photonic microscopy) ([3]; 24 hrs after the lesion)	time course of increasing vestibular deficits ([4]; 1 dose 4 mg/kg ip 24 h after IDPN injection)	time course of increasing vestibular deficits ([4]; 1 dose 4 mg/kg ip 48 h after IDPN injection)	time course of increasing vestibular deficits ([4]; 1 dose 4 mg/kg ip simultaneously with IDPN 1 g/kg ip)	time course of increasing vestibular deficit / vestibular deficits at 54 h ([4]; 2 doses 4 mg/kg ip 24 and 48 hours after IDPN injection, at 54 h, 4 mg/kg)	vestibular deficit, VNG at 1 month ([1]; listed as O)	vestibular deficits (vestibular rating score) at 24 hours [5]
CCN(CC)CCNC(=O)c1cc(Cl)c(N)cc1OC [Metoclopramide]	63,4%	63.4%	84.38%	84,38%	2.25 days	4.5 days	–	–	–	–	–	–	–	–	–	–
Cc1nccn1CC1CCc2c(c3ccccc3n2C)C1=O (centres unmarked) [Ondansetron, 1,2,3,9-tetrahydro-9-methyl-3-[(2-methyl-1H-imidazol-1-yl)methyl]-4H-carbazol-4-one]	43,0%	–	56,53%	–	1.25 days	2.88 days	not associated to significant chemical degradation	significantly reduced	significantly increased	seemed to potentiate	not significantly altered	not significantly altered	not significantly altered	significant modification; also recorded: significantly less severe	43%	significantly reduced

Reference: patent US8580730B2, “Methods of treating lesional vestibular disorders by administering serotonin 5-HT3 receptor antagonists” ((INSERM) Institut National de la Sante et de la Recherche …, priority 2009, dated 2013)
